Assay results from BindingDB's records for doi:10.1124/mol.58.6.1511 (Albert Einstein College of Medicine, 2000).

Key:
[1] = biological target: Solute carrier organic anion transporter family member 2A1 (Homo sapiens, UniProt Q92959)
[2] = biological target: Prostaglandin F2-alpha receptor (Human, UniProt P43088)
Prostaglandin F2-alpha receptor, sequence (P43088 whole entry): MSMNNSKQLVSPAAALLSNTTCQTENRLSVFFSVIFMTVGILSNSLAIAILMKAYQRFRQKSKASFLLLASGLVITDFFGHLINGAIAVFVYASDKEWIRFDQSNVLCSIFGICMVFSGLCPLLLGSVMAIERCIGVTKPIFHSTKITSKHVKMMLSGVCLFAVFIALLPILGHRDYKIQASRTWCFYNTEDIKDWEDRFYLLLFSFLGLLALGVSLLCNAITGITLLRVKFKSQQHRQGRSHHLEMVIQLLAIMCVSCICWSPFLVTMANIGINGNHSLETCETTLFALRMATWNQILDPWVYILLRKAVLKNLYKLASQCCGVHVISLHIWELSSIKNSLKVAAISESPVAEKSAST

Row | Ki [1] [µM] | Ki [2] [µM] | Compound
1 | > 10 | > 10 | CCCCC[C@H](/C=C/[C@@H]1[C@@H](C/C=C/CCCC(N)=O)[C@@H](O)C[C@H]1O)OC [AGN 192151]
2 | 7.3 | > 10 | CCCCC[C@@H](O)/C=C/[C@@H]1[C@@H](C/C=C/CCCC(N)=O)[C@@H](O)C[C@H]1O [AGN 190911]
3 | 5 | 3.2 | CCCCCC(O)C=CC1C(O)CC(O)C1CC=CCCCC(=O)OC(C)C (stereo not drawn) [PGF2 Alpha, 1-isopropyl ester]
4 | 0.071 | 8.13 | CCCCC[C@@H](O)/C=C/[C@@H]1[C@@H](C/C=C/CCCc2nnn[nH]2)[C@@H](O)C[C@H]1O [AGN 191366]
5 | 0.034 | > 10 | CCCCC[C@@H](O)/C=C/[C@@H]1[C@@H](C/C=C/CCCS(=O)(=O)NC(C)=O)[C@@H](O)C[C@H]1O [AGN 194394]
6 | 0.307 | > 10 | CCCCC[C@@H](O)/C=C/[C@@H]1[C@@H](C/C=C/CCCC(=O)NS(C)(=O)=O)[C@@H](O)C[C@H]1O [AGN 191365]
7 | 0.045 |  | CCCCC[C@H](O)/C=C/C1[C@H](O)C[C@H](O)[C@@H]1C/C=C\CCCC(=O)O (stereo partly drawn) [(Z)-7-[(1R,3R,5S)-3,5-Dihydroxy-2-((E)-(S)-3-hydroxy-oct-1-enyl)-cyclopentyl]-hept-5-enoic acid]
8 | > 10 | 0.228 | CCCCC[C@H](/C=C/[C@@H]1[C@@H](C/C=C/CCCC(=O)O)[C@@H](O)C[C@H]1O)OC [AGN 191995]
9 | > 10 | > 10 | CCCCC[C@@H](O)/C=C/[C@@H]1[C@@H](C/C=C/CCCCN)[C@@H](O)C[C@H]1O [AGN 191088]
10 | 0.168 | 0.018 | CC(C)OC(=O)CCC/C=C\C[C@@H]1[C@@H](/C=C/[C@@H](O)CCc2ccccc2)[C@H](O)C[C@@H]1O [CAS_130209-76-6]
